In ChEMBL document CHEMBL2150874, “Novel and selective inhibitors of histone deacetylase: patent highlight” (ACS Med Chem Lett, 2012):
pIC50: −log10 of the molar value.

How the values were obtained:
[1] = tested on: PC-12; assay: Neuroprotective activity in rat PC12 cells at 1 uM by lactate dehydrogenase assay; assay type: functional
[2] = target: T1, Protein deacetylase HDAC6 (Homo sapiens, UniProt Q9UBN7); assay: Inhibition of HDAC6
T1 sequence (Q9UBN7 whole entry): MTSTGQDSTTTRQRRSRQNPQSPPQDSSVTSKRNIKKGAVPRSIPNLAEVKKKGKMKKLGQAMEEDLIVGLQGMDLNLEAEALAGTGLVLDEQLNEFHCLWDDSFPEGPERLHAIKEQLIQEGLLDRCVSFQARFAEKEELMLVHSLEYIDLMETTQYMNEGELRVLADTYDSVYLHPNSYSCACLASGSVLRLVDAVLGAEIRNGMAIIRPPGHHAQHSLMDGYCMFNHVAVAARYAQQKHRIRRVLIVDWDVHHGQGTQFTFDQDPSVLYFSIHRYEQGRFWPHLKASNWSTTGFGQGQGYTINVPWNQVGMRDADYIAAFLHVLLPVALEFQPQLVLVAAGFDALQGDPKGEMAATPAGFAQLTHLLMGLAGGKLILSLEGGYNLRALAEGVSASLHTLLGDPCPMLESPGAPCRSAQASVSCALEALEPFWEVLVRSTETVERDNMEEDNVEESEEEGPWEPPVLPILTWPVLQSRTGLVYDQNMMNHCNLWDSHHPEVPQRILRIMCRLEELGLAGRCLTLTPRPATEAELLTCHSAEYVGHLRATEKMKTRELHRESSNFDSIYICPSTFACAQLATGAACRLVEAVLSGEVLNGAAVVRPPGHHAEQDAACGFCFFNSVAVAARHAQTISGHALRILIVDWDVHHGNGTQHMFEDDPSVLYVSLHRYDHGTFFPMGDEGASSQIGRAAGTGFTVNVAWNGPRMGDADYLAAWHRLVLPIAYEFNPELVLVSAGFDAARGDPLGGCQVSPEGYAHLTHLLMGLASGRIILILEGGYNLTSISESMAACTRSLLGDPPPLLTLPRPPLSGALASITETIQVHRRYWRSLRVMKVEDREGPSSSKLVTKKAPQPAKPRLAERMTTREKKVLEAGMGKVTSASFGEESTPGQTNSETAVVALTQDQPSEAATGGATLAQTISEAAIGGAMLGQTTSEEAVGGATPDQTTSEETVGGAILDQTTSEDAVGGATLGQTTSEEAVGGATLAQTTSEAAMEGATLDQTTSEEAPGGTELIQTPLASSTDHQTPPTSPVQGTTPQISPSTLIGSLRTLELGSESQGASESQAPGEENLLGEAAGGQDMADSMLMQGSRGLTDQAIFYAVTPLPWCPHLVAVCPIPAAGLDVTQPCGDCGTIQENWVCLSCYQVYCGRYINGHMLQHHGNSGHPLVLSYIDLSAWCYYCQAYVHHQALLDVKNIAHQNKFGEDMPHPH

For COc1ccc(/C=C(/C(=O)N2CCc3ccc(C(=O)NO)cc3C2)c2ccccc2)cc1, the Activity [1] was 55% and the pIC50 [2] was > 9.00.
With Cc1ccc(/C(=C\c2ccccc2)C(=O)N2CCc3ccc(C(=O)NO)cc3C2)cc1 the Activity [1] was 68.7% and the pIC50 [2] was > 9.00.
COc1ccc(/C=C(/C(=O)N2CCc3ccc(C(=O)NO)cc3C2)c2ccc(F)cc2)c(OC)c1 was tested, and the Activity [1] was 38% and the pIC50 [2] was > 9.00.
In the case of COc1cc(/C=C(/C(=O)N2CCc3ccc(C(=O)NO)cc3C2)c2ccc(F)cc2)ccc1F, the Activity [1] was 67.2% and the pIC50 [2] was > 9.00.
Cc1ccc(/C(=C\c2ccc(F)cc2)C(=O)N2CCc3ccc(C(=O)NO)cc3C2)cc1 was tested, and the Activity [1] was 100% and the pIC50 [2] was > 9.00.
With O=C(NO)c1ccc2c(c1)CN(C(=O)/C(=C/c1ccc(F)cc1F)c1ccc(F)cc1)CC2 the Activity [1] was 56% and the pIC50 [2] was > 9.00.
In the case of O=C(NO)c1ccc2c(c1)CN(C(=O)/C(=C/c1ccccc1)c1ccccc1)CC2, the Activity [1] was 36.6% and the pIC50 [2] was > 9.00.
With O=C(NO)c1ccc2c(c1)CN(C(=O)/C(=C/c1ccccc1)c1cccc(Cl)c1)CC2 the Activity [1] was 77.8% and the pIC50 [2] was > 9.00.
In the case of COc1ccc(/C=C(/C(=O)N2CCc3ccc(C(=O)NO)cc3C2)c2ccccc2F)cc1OC, the Activity [1] was 100% and the pIC50 [2] was > 9.00.
In the case of O=C(NO)c1ccc2c(c1)CN(C(=O)/C(=C/c1cccs1)c1ccc(F)cc1)CC2, the Activity [1] was 71.8% and the pIC50 [2] was > 9.00.
